According to patent US20220315572A1, “SUBSTITUTED CYANOPYRROLIDINES WITH ACTIVITY AS USP30 INHIBITORS” (MISSION THERAPEUTICS LIMITED, priority 2019, published 2022):

Columns and labels:
[1] = molecular target: Cathepsin V (Homo sapiens, UniProt O60911); experiment: Cathepsin IC50, cathepsin V; assay type: biochemical
[2] = FaSSIF solubility; assay type: physicochemical; conditions: simulated intestinal fluid, fasted state
Excerpt: FaSSIF: simulated intestinal fluid in fasted state measured at pH 6.5.

[3] = test system: USP2, USP10, USP16, USP21, USP22, USP25, USP28, USP35, USP46; experiment: DUB biochemical IC50 assays, nine DUBs; conditions: range over the nine DUBs; for IC50: Ref. Ex. C excl. USP22, Ref. Ex. D excl. USP2, 46
[4] = PK mouse; assay type: in vivo
Excerpt: Cl in vivo clearance: Pharmacokinetic measurement of the volume of plasma (or any matrix) from which a substance is completely removed per unit time.
Oral F: Oral Bioavailability.
Kpu,u is the ratio of unbound drug in brain to unbound drug in plasma and may be indicative of potential for treating peripheral and/or CNS indications.

[5] = test system: TK6 cells; experiment: In vitro micronucleus assay; assay type: cell-based; conditions: 27 hours recovery
Description: The micronucleus assay may be used to determine if a compound is genotoxic by evaluating the presence of micronuclei. Micronuclei may contain chromosome fragments produced from DNA breakage (clastogens) or whole chromosomes produced by disruption of the mitotic apparatus (aneugens).
Example 1 was assessed in the bacterial reverse mutation assay (Ames) and in vitro micronucleus assay. All in vitro tests were conducted with and without exogenous metabolic activation using concentrations up to those limited by cytotoxicity or insolubility.
Induction of chromosome damage was assessed using the in vitro micronucleus assay in TK6 cells. Example 1 was negative for induction of micronuclei when incubated for 3 hours in the presence of exogenous metabolic activation followed by 27 hours recovery, and also when incubated for 27 hours in the absence of exogenous metabolic activation followed by 27 hours recovery.

[6] = test system: UCHL1, USP2, USP4, USP8, USP10, USP12/UAF1, USP15, USP16, USP21, USP22, USP25, USP28, USP35, USP36, USP46/UAF1; experiment: DUB biochemical IC50 assays, off-target panel; conditions: bound over all 15 DUBs listed
[7] = Mouse plasma stability; assay type: in vitro ADME; conditions: read-out: Stability Mouse plasma t1/2
Excerpt: Other parameters that may be measured using standard assays that are indicative of a compound's exposure profile include, for example plasma stability (half-life measurement), blood AUC, Cmax, Cmin and Tmax values.

[8] = Brain homogenate free fraction, equilibrium dialysis; assay type: in vitro ADME; conditions: mouse brain tissue homogenate; read-out: Binding Mouse Brain fu, br
Excerpt: Brain fu,br: The free fraction of a compound in brain tissue homogenate preparation determined by in vitro equilibrium dialysis. It is understood that only unbound (free) compound is capable of engaging with the target.

[9] = molecular target: T1, UCHL1 (Homo sapiens, UniProt P09936); experiment: DUB biochemical IC50 assay, UCHL1
T1 sequence (P09936 1-223): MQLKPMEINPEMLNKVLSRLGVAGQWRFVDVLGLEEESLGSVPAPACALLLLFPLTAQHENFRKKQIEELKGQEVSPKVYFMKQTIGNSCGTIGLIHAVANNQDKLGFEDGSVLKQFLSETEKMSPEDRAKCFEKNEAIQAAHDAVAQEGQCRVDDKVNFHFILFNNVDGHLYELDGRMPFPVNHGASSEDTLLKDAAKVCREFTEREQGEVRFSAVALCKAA

[10] = Plasma free fraction, equilibrium dialysis; assay type: in vitro ADME; conditions: mouse plasma; read-out: Binding Mouse Plasma fu, p
Excerpt: Plasma fu,p: The free fraction of a compound in plasma preparation determined by in vitro equilibrium dialysis. It is understood that only unbound (free) compound is capable of engaging with the target.

[11] = molecular target: T2, USP30 (Homo sapiens, UniProt Q70CQ3); experiment: USP30 biochemical IC50 assay (fluorescence polarisation); conditions: for IC50: USP30 biochemical IC50 assay, exemplary compounds, read-out: IC50; for fold more potent against USP30 than Reference Example A: v Reference Example A; for fold more potent against USP30 than Reference Example E: v Reference Example E; for fold more potent against USP30 than Reference Example F: v Reference Example F; for fold more potent against USP30 than Reference Example G: v Reference Example G
T2 construct: purchased Boston Biochem E582
T2 sequence (Q70CQ3 57-517 limits assumed): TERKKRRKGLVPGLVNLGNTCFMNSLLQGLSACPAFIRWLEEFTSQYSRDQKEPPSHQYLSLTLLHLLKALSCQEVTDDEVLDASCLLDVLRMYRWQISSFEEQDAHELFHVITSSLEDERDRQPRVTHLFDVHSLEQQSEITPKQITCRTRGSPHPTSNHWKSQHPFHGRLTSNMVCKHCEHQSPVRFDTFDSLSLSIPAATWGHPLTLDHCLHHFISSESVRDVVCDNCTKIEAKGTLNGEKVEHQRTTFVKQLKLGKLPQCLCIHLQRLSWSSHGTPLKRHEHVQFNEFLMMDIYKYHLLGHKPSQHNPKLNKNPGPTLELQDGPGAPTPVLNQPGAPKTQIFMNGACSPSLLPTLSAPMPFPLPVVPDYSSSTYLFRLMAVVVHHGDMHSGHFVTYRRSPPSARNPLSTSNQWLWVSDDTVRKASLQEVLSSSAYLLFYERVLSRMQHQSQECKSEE
Description: Dilution plates were prepared at 21 times the final concentration (2100 μM for a final concentration of 100 μM) in 50% DMSO in a 96-well polypropylene V-bottom plate (Greiner #651201). A typical 8-point dilution series would be 100, 30, 10, 3, 1, 0.3, 0.1, 0.03 μM final. Reactions were performed in duplicate in black 384 well plates (small volume, Greiner 784076) in a final reaction volume of 21 μl. Either […] of 50% DMSO or diluted compound was added to the plate. USP30 (Boston Biochem #E582) was diluted in reaction buffer (40 mM Tris, pH 7.5, 0.005% Tween 20, 0.5 mg/ml BSA, 5 mM beta-mercaptoethanol) to achieve a final assay concentration of 4 nM, and 10 μl of diluted USP30 was added to the compound. Enzyme and compound were incubated for 30 min at room temp. Reactions were initiated by the addition of 50 nM of TAMRA labelled peptide linked to ubiquitin via an iso-peptide bond as fluorescence polarisation substrate. Reactions were read immediately after addition of substrate and following a 2-hour incubation at room temperature. Readings were performed on a Pherastar Plus (BMG Labtech). λ Excitation 540 nm; λ Emission 590 nm.

Chain of Cathepsin V (O60911 114-334, species assumed): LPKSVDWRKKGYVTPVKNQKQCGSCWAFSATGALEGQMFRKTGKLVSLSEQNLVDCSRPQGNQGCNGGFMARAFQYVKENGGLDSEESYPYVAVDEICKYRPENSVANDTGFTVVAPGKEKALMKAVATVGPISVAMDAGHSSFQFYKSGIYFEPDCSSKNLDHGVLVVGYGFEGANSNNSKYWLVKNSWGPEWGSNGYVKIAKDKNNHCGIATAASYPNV

Structure (SMILES) | IC50 [1] | DUB selectivity preference for USP30 v 9 DUBs [3] | IC50 [3] | DUB selectivity preference for USP30 v UCHL1 [9] | IC50 [9] | IC50 [11] | fold more potent against USP30 than Reference Example A ([11]; biochemical assay) | fold more potent against USP30 than Reference Example E ([11]; biochemical assay) | fold more potent against USP30 than Reference Example F ([11]; biochemical assay) | fold more potent against USP30 than Reference Example G ([11]; biochemical assay) | further results
C[C@@H]1C[C@@H](NC(=O)c2nnc(-c3cccc(C#N)c3)o2)CN1C#N [Example 1, N-((3R,5R)-1-Cyano-5-methylpyrrolidin-3-yl)-5-(3-cyanophenyl)-1,3,4-oxadiazole-2-carboxamide] | 176 µM | 200-6900 | 5.8 to 202 µM | 10300 | > 300 µM | 0.029 µM | 2.4 fold | 10.7 fold | 24 fold | 152 fold | FaSSIF (μM) measured at pH 6.5 [2]: 415 μM; melting point: 152 to 154 °C; Unbound plasma Cmax/TOM20-Ub cell potency ([4]; 10 mg/kg PO dose - mouse): 82-fold; clearance ([4]; blood, mouse 2 mg/kg iv, read-out: Cl blood): 23 mL/min/kg; Kp ([4]; brain and plasma (unbound), 2 mg/kg IV dose - mouse, unbound brain to unbound plasma, read-out: Kpu, u): 0.01; bioavailability ([4]; in vivo, po, mouse 10 mg/kg, read-out: Oral F (%)): 48%; induction of micronuclei ([5]; 3 hours in the presence of exogenous metabolic activation): negative; induction of micronuclei ([5]; 27 hours in the absence of exogenous metabolic activation): negative; IC50 [6]: ≥ 5.8 µM; half-life [7]: > 33.3 h; fraction unbound [8]: 0.26; fraction unbound [10]: 0.54
N#Cc1cccc(-c2nnc(C(=O)N[C@@H]3C[C@@H](CF)N(C#N)C3)o2)c1 [Example 3, N-((3R,5S)-1-Cyano-5-(fluoromethyl)pyrrolidin-3-yl)-5-(3-cyanophenyl)-1,3,4-oxadiazole-2-carboxamide] | 42.9 µM | 338-23000 | ≥ 4.4 µM | 15400 | 200 µM | 0.013 µM | 5.4 fold | 24 fold | 54 fold | 338 fold | fold more potent against USP30 than Reference Example B ([11]; biochemical assay, v Reference Example B): 3.4 fold; fold more potent against USP30 than Reference Example C ([11]; biochemical assay, v Reference Example C): 2 fold; fold more potent against USP30 than Reference Example D ([11]; biochemical assay, v Reference Example D): 3.2 fold
